Patent US20230181498A1, “NEW USE OF N,N-BIS-2-MERCAPTOETHYL ISOPHTHALAMIDE” (EMERAMED LIMITED, priority 2020, published 2023)

How the values were obtained:
Format in all cases: in vivo, human
[1] = system: common cold-like and/or flu-like symptoms; assay: Treatment of Patient II (case report, daily NBMI); details: self-reported
Description: A person residing in the USA, the spouse of Patient I, reported that they were often inflicted with common cold-like and/or flu-like symptoms due to their profession as a registered nurse.

viral infections [2] = assay: Treatment of Patient with ME/CFS I (case report)
Procedure: A person residing in Sweden and diagnosed with myalgic encephalomyelitis/chronic fatigue syndrome (ME/CFS), reported that they started to use NBMI extensively in 2010 starting with 600 mg/day for 1.5 months, then 400 mg/day for 1.5 months and then 300 mg/day for three months.
Due to ME/CFS, the person was often inflicted with viral infections.

[3] = system: common cold-like and/or flu-like illnesses; assay: Treatment of Patient I (case report, daily NBMI); details: man, up to 300 mg/day NBMI almost daily for approximately 14 years; self-reported
Procedure: A person residing in the USA reported taking doses of up to 300 mg/day NBMI almost daily since 2006.
Before taking NBMI, the person regularly became sick with such illnesses due to their work as a university professor and being an avid outdoorsman.

viral infections [4] = assay: Treatment of Patient with ME/CFS II (case report); details: person with ME/CFS and long history of viral infections, 300 mg/day NBMI from 2010; self-reported
Description: The person was often sick and had, therefore, a poor quality of life.

[5] = person with ME/CFS, 2010, 600 then 400 then 300 mg/day, self-reported

## O=C(NCCS)c1cccc(C(=O)NCCS)c1 [NBMI, N,N-bis-2-mercaptoethyl isophthalamide]
[1]; person, NBMI daily, over the past 5 years
  common cold-like and/or flu-like symptoms, recent years: has not experienced any such symptoms
[1]; registered nurse, NBMI daily since 2010
  flu-like symptoms after starting NBMI: great decrease in having flu-like symptoms
Viral infections [2]; person with ME/CFS, 300 mg/day again from late 2011, self-reported
  frequency and severity of infections on restarting NBMI: got fewer and less severe
Viral infections [2]; person with ME/CFS, 2010, 600 mg/day for 1.5 months, then 400 mg/day for 1.5 months, then 300 mg/day for three months, self-reported
  frequency of viral infections: viral infections became fewer
Viral infections [2]; [5]
  intensity of viral infections (pain, headache, fatigue, time bedridden): intensity was less severe
  recovery time from viral infections: recovery time was quicker
Viral infections [2]; person with ME/CFS, after halting NBMI in summer 2010, self-reported
  frequency and severity of viral infections after halting the treatment: viral infections became more frequent and more severe
Viral infections [2]; person with ME/CFS, occasional NBMI when inflicted with a virus infection, compared with not taking NBMI, patient's impression
  severity and duration of virus infection when NBMI is taken during infection: less severe and shorter in duration
[3]
  occurrence of common cold-like and/or flu-like illnesses: has not become unwell with common cold-like and/or flu-like illnesses
Viral infections [4]
  occurrence of viral infections: no longer suffered from viral infections
